{"source": "patent US12036229B2", "about": "“Use of phosphorylated heptose compounds” (NATIONAL RESEARCH COUNCIL OF CANADA, priority 2017, dated 2024)", "system": "CT26 cells (colon carcinoma from BALB/c mice)", "experiment": "CT26 tumour model in BALB/c mice", "format": "in vivo", "settings": "intraperitoneal; HMP 200 μg per day D10, D11, D12; LPS 1x at 3 mg/kg; 11 day period, vs PBS; FIG. 14c", "data": [{"substance": "lipopolysaccharide [LPS]", "values": [{"measurement": "change in tumour volume relative to day 10 (rate of tumour growth)", "value": "significantly reduced the rate of tumour growth"}]}]}
